Test [1] addresses Recombinant human His-tagged Kat6a protein (amino acids 194-810) (Homo sapiens (Human), UniProt Q92794). The experiment in a line: Kat6a activity assay (TR-FRET, acetylation of biotinylated Histone-H4-derived peptide). Format: biochemical. As to conditions: 60 mins at 22° C., read-out: KAT6A-DPF/HAT domain IC50 [mol/l] (arithmetic mean). In short, it runs like this: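 Sf9-expressed human His-Kat6a (aa 194-810) incubated 60 min at 22 °C with compounds (0.01-20 μM) in Tris pH 8 buffer containing 220 nM biotinylated H4 peptide (aa 1-24) and 600 nM acetyl-CoA. Acetyl-K8 detected by TR-FRET (665/620 nm ratio); IC50 by four-parameter fit versus DMSO controls.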
On the technique in general: Time-resolved FRET reads energy transfer from a long-lived donor to a nearby acceptor.

Test [2] concerns the target Recombinant human GST-tagged Kat6b protein (431-end). Put plainly: Kat6b activity assay (TR-FRET, acetylation of biotinylated Histone-H4-derived peptide). To be noted: 30 mins at 22° C., read-out: KAT6B activity assay IC50 [mol/l] (arithmetic mean). Type of test: biochemical.
Test [3] relates to ESR1 transcription (luciferase signal in MVLN cells). The experiment in a line: Repression of ESR1 transcription, luciferase reporter in MVLN cells. Format: cell-based. As to conditions: inhibition of luciferase signal in MVLN cells, arithmetic mean. In short, it runs like this: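 MVLN cells (constitutive ER, stably carrying a Vitellogenin A2 hormone-responsive element–luciferase reporter) treated in duplicate; luciferase read after 24 h. Cell density checked by Alamar Blue fluorescence (530/590 nm) after 2 h to exclude cell-loss effects.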
For orientation: In a reporter assay the amount or activity of a reporter protein is the signal.

Another test deals with ZR-75-1 cells. Put plainly: Proliferation assay ZR-75-1 (Alamar Blue, 144 h). Format: cell-based. As to conditions: arithmetic mean, read-out: ZR75-1 proliferation assay, EC50 [M] (arithmetic mean). The method, boiled down:
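Cells seeded at 3000/well in RPMI 1640 with 2.5% FBS and treated 24 h later across 2.0×10E-5 to 2.0×10E-9 M (9 dilutions, 0.2% DMSO, triplicate). After 144 h at 37 °C, 5% CO2, viability read by Alamar Blue fluorescence at 590 nm following 2 h reagent incubation.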

A further test relates to MDA-MB-436 cells. The experiment in a line: Proliferation assay MDA-MB-436, negative control cell line (Alamar Blue, 144 h). Format: cell-based. To be noted: arithmetic mean. The method, boiled down: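 MDA-MB-436 cells (3000/well, DMEM/Ham's F12 with 2.5% FBS) treated 24 h after plating with compounds at 2.0×10E-5 to 2.0×10E-9 M (9 dilutions, 0.2% DMSO), triplicates, 144 h at 37 °C, 5% CO2. Viability by Alamar Blue, 2 h, fluorescence at 590 nm.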
A general note: The colour change of resazurin is a common sign of viable cells or microbes.

For the next test, the system named is LCLC-97TM1 cells. The experiment in a line: Proliferation assay LCLC-97TM1 (Alamar Blue, 144 h). Type of test: cell-based. To be noted: Homo sapiens, LCLC97TM1, large cell lung carcinoma, read-out: proliferation assays. Here is the method:
(§1) Assessment of the Anti-Proliferative Effect of Compounds in Different Cell Lines
(§2) To determine further cancer indications that respond to treatment with KAT6A or KAT6B3 inhibitors various cell lines carrying a KAT6A and/or KAT6B3 focal amplification or high KAT6A and/or KAT6B3 protein expression were used for proliferation assays with selected compounds.
(§3) 24 hours later, cells were treated with compounds (stock solution, 10 mM in DMSO) using the HP D300 Digital Dispenser in a concentration range of 2.0×10E-5 M to 2.0×10E-9 M in a single-dot curve with 9 dilutions and a DMSO concentration of 0.2%. Each sample was prepared as triplicate and rim wells were excluded. Plates were incubated at 37° C. and 5% CO2 for 144 h. Cell viability was measured by adding 10 μL of Alamar Blue Reagent (Invitrogen #DAL 1100) and plates were incubated for 2 h at 37° C. and 5% CO2. Fluorescence was measured at 590 nm wavelength with a Tecan Spark or Victor X3 MTP-Reader (PerkinElmer).

The subject of another test is DMS 53 cells. The experiment in a line: Proliferation assay DMS 53 (Alamar Blue, 144 h). To be noted: Homo sapiens, DMS53, small cell lung cancer, read-out: proliferation assays. Type of test: cell-based. Here is the method: as §1, §2, §3
Another test deals with DMS 114 cells. Put plainly: Proliferation assay DMS 114 (Alamar Blue, 144 h). Format: cell-based. As to conditions: Homo sapiens, DMS114, small cell lung cancer, read-out: proliferation assays. As for the experimental part:
as §1, §2, §3

The subject of a further test is LNCAP cells. Put plainly: Proliferation assay LNCAP (Alamar Blue, 144 h). As to conditions: Homo sapiens, prostate carcinoma, 10 nM R1881, read-out: proliferation assays. Format: cell-based. Here is the method:
as §1, §2, §3

The next test deals with CAMA-1 cells. The experiment in a line: Proliferation assay CAMA-1 (Alamar Blue, 144 h). Format: cell-based. To be noted: Homo sapiens, CAMA1, breast adenocarcinoma, read-out: proliferation assays. As for the experimental part: as §1, §2, §3
Another test concerns T47D cells. Put plainly: Proliferation assay T47D (Alamar Blue, 144 h). Format: cell-based. As to conditions: Homo sapiens, breast ductal carcinoma, read-out: proliferation assays. Here is the method: as §1, §2, §3
A further test deals with EFM-19 cells. Put plainly: Proliferation assay EFM-19 (Alamar Blue, 144 h). Type of test: cell-based. To be noted: Homo sapiens, EFM19, breast carcinoma, read-out: proliferation assays. Here is the method: as §1, §2, §3
The next test concerns COLO 684 cells. The experiment in a line: Proliferation assay COLO 684 (Alamar Blue, 144 h). As to conditions: Homo sapiens, COLO684, uterus adenocarcinoma, read-out: proliferation assays. Format: cell-based. As for the experimental part:
as §1, §2, §3

In the next test the test system is JMSU-1 cells. The experiment in a line: Proliferation assay JMSU-1 (Alamar Blue, 144 h). Format: cell-based. As to conditions: JMSU1, bladder carcinoma, read-out: proliferation assays. Here is the method: as §1, §2, §3
A further test concerns THP-1 cells. The experiment in a line: Proliferation assay THP-1 (Alamar Blue, 144 h). Type of test: cell-based. As to conditions: Homo sapiens, THP1, acute monocytic leukemia, read-out: proliferation assays. As for the experimental part:
as §1, §2, §3

Setting [4] is: Homo sapiens, MDA-MB-436, 144 h.

Read-outs that look alike come from different tables or passages of the source.

Sequence of Recombinant human His-tagged Kat6a protein (amino acids 194-810) (Q92794 194-810): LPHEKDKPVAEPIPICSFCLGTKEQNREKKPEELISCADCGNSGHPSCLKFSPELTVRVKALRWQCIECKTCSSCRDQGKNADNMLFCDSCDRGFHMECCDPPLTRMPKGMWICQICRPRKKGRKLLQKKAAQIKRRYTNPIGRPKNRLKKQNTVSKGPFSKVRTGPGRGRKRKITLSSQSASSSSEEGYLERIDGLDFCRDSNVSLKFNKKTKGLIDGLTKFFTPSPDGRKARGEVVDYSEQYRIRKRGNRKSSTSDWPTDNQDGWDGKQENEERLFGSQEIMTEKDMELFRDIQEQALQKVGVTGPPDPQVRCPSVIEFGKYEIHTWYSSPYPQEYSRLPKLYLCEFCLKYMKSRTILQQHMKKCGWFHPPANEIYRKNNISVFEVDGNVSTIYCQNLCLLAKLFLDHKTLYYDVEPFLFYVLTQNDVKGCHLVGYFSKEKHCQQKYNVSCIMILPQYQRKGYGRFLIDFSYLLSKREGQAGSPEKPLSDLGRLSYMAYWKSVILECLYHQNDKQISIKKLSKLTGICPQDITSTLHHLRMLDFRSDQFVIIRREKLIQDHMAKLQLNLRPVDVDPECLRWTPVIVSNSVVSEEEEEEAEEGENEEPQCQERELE

As to `CCCOc1ccccc1S(=O)(=O)NC(=O)c1cc2ccc(N(C)C)cc2o1` [Example 23, 6-(Dimethylamino)-N-(2-propoxybenzene-1-sulfonyl)-1-benzofuran-2-carboxamide], the IC50 in test [1] is 79.3 nM; in test [2], 99.2 nM; in test [3] (Homo sapiens, MVLN), 98 nM. Also, the EC50 was 2.34e-08 M with ZR-75-1 cells (Homo sapiens, ZR-75-1, 144 h); greater than 20000 nM with MDA-MB-436 cells (setting [4]); 157 nM in the test on LCLC-97TM1 cells; 367 nM in the test with DMS 53 cells; 205 nM in the test with DMS 114 cells; greater than 20000 nM with LNCAP cells. In addition, the EC50 in the test with CAMA-1 cells amounted to 415 nM; with T47D cells, 197 nM; with EFM-19 cells, 155 nM; in the test on COLO 684 cells, 92.9 nM.

As to `CCOc1ccccc1S(=O)(=O)NC(=O)c1cc2ccc(N(C)C)cc2o1` [Example 19, 6-(Dimethylamino)-N-(2-ethoxybenzene-1-sulfonyl)-1-benzofuran-2-carboxamide], the results for the IC50 in test [1], in test [2] and in test [3] were 84.6 nM, 66.9 nM and 42.2 nM, respectively. The EC50 with ZR-75-1 cells is 5.96e-08 M; with MDA-MB-436 cells, greater than 20000 nM; in the test with LCLC-97TM1 cells it was 447 nM; in the test on DMS 53 cells it was 130 nM; in the test on DMS 114 cells, 136 nM; in the test on LNCAP cells, 1630 nM. Moreover, the EC50 was found to be 70.6 nM in the test on JMSU-1 cells; 95.8 nM in the test with THP-1 cells; 268 nM with CAMA-1 cells; 170 nM with T47D cells; 105 nM in the test with EFM-19 cells; 156 nM with COLO 684 cells.

`CN(C)c1ccc2cc(C(=O)NS(=O)(=O)c3ccccc3-c3ccccc3)oc2c1` [Example 14, N-([1,1′-Biphenyl]-2-sulfonyl)-6-(dimethylamino)-1-benzofuran-2-carboxamide] had an IC50 in [3] (Homo sapiens, MVLN) of 121 nM. The EC50 was 1.2e-07 M in the test on ZR-75-1 cells; 18400 nM in the test on MDA-MB-436 cells (setting [4]); 490 nM in the test on DMS 53 cells; 4160 nM in the test with LNCAP cells; 605 nM in the test with JMSU-1 cells; 238 nM with THP-1 cells. The values for the EC50 in the test with EFM-19 cells and with COLO 684 cells were 223 nM and 184 nM, respectively.

The values are drawn from US12357603B2, “Acyl sulfonamides for treating cancer” (Bayer Aktiengesellschaft, priority 2019, dated 2025).
